Measured values published in patent publication US11518764B2, “Substituted heteroaryls as inhibitors of the BCL6 BTB domain protein-protein interaction” (Ontario Institute for Cancer Research (OICR), priority 2018, dated 2022).
Read-outs that look alike come from different tables or passages of the source.

What was measured:
BCL6 BTB domain = BCL6 BTB domain (Homo sapiens (Human), UniProt P41182); assay: Surface plasmon resonance (SPR) assay; assay type: binding; conditions: BCL6 BTB domain captured on SA chip, single cycle kinetics
[1] = test system: BCL6 reporter construct (3xBCL6-TK-Luc) in SuDHL4 cells; assay: Cell-based luciferase assay
Protocol: Cell-Based Luciferase Assay
A BCL6 reporter construct containing three copies of the consensus BCL6 binding site, the TK promoter, and the firefly luciferase gene was stably expressed in SuDHL4 cells after lentivirus infection and selection with Blasticidin. SuDHL4-3×BCL6-TK-Luc cells were seeded into a Viewplate 384-well assay dish at 15,000 cells/well in 25 ul medium (Alpha-MEM high glucose containing 10% FBS, 25 mM HEPES, […] GlutaMAX, 100 ug/ml Normocin, and […] Gentamycin, Invitrogen). A HP D300 digital dispenser was used to dose cells with DMSO or test compounds across a 10-point range of concentrations (high dose of 10 uM), and cultures were grown in a humidified 5% CO2 incubator at 37° C. After two days, plates were removed from the incubator and equilibrated to room temperature. An equal volume of neolite reporter gene assay reagent was added to each well, and samples were processed according to manufacturer's instructions (Perkin Elmer). Luminescent signal was measured using an Envision plate reader equipped with a US-Luminescence detector.

Karpas422 cells = assay: Tumor cell growth inhibition assay; assay type: cell-based
Protocol: Tumor Cell Growth inhibition Assay
Karpas422 cells were seeded into a 96-well plate at 2,000 cells/well in 150 ul medium (Alpha-MEM containing 10% FBS, […] Normocin, and […] Gentamycin, Invitrogen). A HP D300 digital dispenser was used to dose cells with DMSO or test compounds across a 10-point range of concentrations (high dose of 5 uM), and cultures were grown in a humidified 5% CO2 incubator at 37° C. After six days, plates were removed from incubator and equilibrated to room temperature. An equal volume of ATPlite assay reagent was added to each well, and samples were processed according to manufacturer's instructions (Perkin Elmer). Luminescent signal was measured using an Envision plate reader equipped with a US-Luminescence detector.

[2] = Homo sapiens, SU-DHL-4, 48 h, read-out: Luciferase-Assay EC50, uM), SuDHL4-3xBCL6-TK-Luc cells, two days, high dose 10 uM
[3] = Homo sapiens, KARPAS-422, 144 h, read-out: Tumor Growth Inhibition in Karpas-422 (IC50, uM), Karpas422 cells, six days, ATPlite
[4] = read-out: Tumor Growth Inhibition in Karpas-422 (IC50), Karpas422 cells, six days, ATPlite

Row | SMILES | Kd (BCL6 BTB domain) | EC50 [1, 2] | IC50 (Karpas422 cells; [3]) | IC50 (Karpas422 cells; [4]) | EC50 ([1]; read-out: Luciferase-Assay EC50, SuDHL4-3xBCL6-TK-Luc cells, two days, high dose 10 uM)
1 | Cc1cc(-c2cn(CC(=O)Nc3cc(N4CCOCC4)ncc3Cl)c3ncn(C)c(=O)c23)cc(C(N)=O)c1O [Compound I-4, 5-(7-(2-((5-chloro-2-morpholinopyridin-4-yl)amino)-2-oxoethyl)-3-methyl-4-oxo-4,7-dihydro-3H-pyrrolo[2,3-d]pyrimidin-5-yl)-2-hydroxy-3-methylbenzamide] | 279 nM | 1.8 µM | 0.525 µM |  | 
2 | C[C@@H]1CN(c2cc(NC(=O)Cn3cc(-c4cc(Cl)c(O)c(C(N)=O)c4)c4c(=O)n(C)cnc43)c(Cl)cn2)C[C@H](C)O1 [Compound I-13] | 22 nM | 0.17 µM | 0.18 µM |  | 
3 | C[C@H]1COCCN1c1cc(NC(=O)Cn2cc(-c3cc(Cl)c(O)c(C(N)=O)c3)c3c(=O)n(C)cnc32)c(Cl)cn1 [Compound I-35] |  |  |  | 0.133 µM | 
4 | Cn1cnc2c(c(-c3cc(Cl)c(O)c(C(N)=O)c3)cn2CC(=O)Nc2cc(N3CCC(F)C3)ncc2Cl)c1=O (stereo not shown) [Compound I-67] | 14 nM | 0.296 µM | 0.267 µM |  | 
5 | Cn1cnc2c(c(-c3cc(Cl)c(O)c(C(N)=O)c3)cn2CC(=O)Nc2cc(N3CCOC(C(F)(F)F)C3)ncc2Cl)c1=O (stereo not shown) [Compound I-69] | 72 nM |  |  | 0.22 µM | 0.269 µM
6 | C[C@@H]1CN(CCN(C)c2cc(NC(=O)Cn3cc(-c4cc(Cl)c(O)c(C(N)=O)c4)c4c(=O)n(C)cnc43)c(Cl)cn2)C[C@H](C)O1 [Compound I-73] | 19 nM | 0.233 µM | 0.165 µM |  | 
7 | Cn1cnc2c(c(-c3cc(Cl)c(O)c(C(N)=O)c3)cn2CC(=O)Nc2cc(N3C[C@H]4CCO[C@H]4C3)ncc2Cl)c1=O [Compound I-74] | 2 nM | 2.3 µM | 0.123 µM |  | 
8 | Cn1cnc2c(c(-c3cc(Cl)c(O)c(C(N)=O)c3)cn2CC(=O)Nc2cc(N3CCN4CCOCC4C3)ncc2Cl)c1=O (stereo not shown) [Compound I-75] | 8 nM | 0.132 µM | 0.099 µM |  | 
9 | Cn1cnc2c(c(-c3cc(Cl)c(O)c(C(N)=O)c3)cn2CC(=O)Nc2cc(N3CCC4(CCOC4)C3)ncc2Cl)c1=O (stereo not shown) [Compound I-76] | 12 nM | 0.155 µM | 0.112 µM |  | 
10 | Cn1cnc2c(c(-c3cc(C(N)=O)c(O)cn3)cn2CC(=O)Nc2cc(N3CCOCC3)ncc2Cl)c1=O [Compound I-143, 2-(7-(2-((5-chloro-2-morpholinopyridin-4-yl)amino)-2-oxoethyl)-3-methyl-4-oxo-4,7-dihydro-3H-pyrrolo[2,3-d]pyrimidin-5-yl)-5-hydroxyisonicotinamide] | 250 nM | 6.2 µM |  |  | 
11 | CCOc1cc(-c2cn(CC(=O)Nc3cc(N4CCOC[C@@H]4C)ncc3Cl)c3ncn(C)c(=O)c23)cc(C(N)=O)c1O [Compound I-144] |  | 10 µM | 10 µM |  | 
12 | Cn1cnc2c(c(-c3cc(Cl)c(O)c(C(N)=O)c3)cn2CC(=O)Nc2cc(N3CCn4cc(C(F)(F)F)nc4C3)ncc2Cl)c1=O [Compound I-165] | 14.9 nM | 0.466 µM |  |  | 
13 | CN1CCN(c2ccc(Cl)c(NC(=O)Cn3cc(-c4cc(Cl)c(O)c(C(N)=O)c4)c4c(=O)n(C)cnc43)n2)CC1 [Compound I-175] | 429 nM |  | 4.79 µM |  | 
14 | C[C@H]1CN(C)CCN1c1cc(NC(=O)Cn2cc(-c3cc(F)c(O)c(C(N)=O)c3)c3c(=O)n(C)c(C(F)(F)F)nc32)c(Cl)cn1 [Compound I-233] | 23.7 nM | 0.161 µM |  |  | 
15 | C[C@H]1COCCN1c1cc(NC(=O)Cn2cc(-c3cc(Cl)c(O)c(C(N)=O)c3)c3c(=O)n(C)cnc32)c(Cl)cn1 [Compound I-239] |  |  |  | 0.316 µM | 
16 | C[C@H]1CN(CC(F)(F)F)CCN1c1cc(NC(=O)Cn2cc(-c3cc(Cl)c(O)c(C(N)=O)c3)c3c(=O)n(C)c(C(F)(F)F)nc32)c(Cl)cn1 [Compound I-253] | 2100 nM |  |  |  | 
